From patent publication US20230192617A1, “AZABICYCLIC(THIO)AMIDES AS FUNGICIDAL COMPOUNDS” (Bayer CropScience Aktiengesellschaft, priority 2020, published 2023) come the findings set out here.

The subject of one data set is Alternaria alternata. Put plainly: Alternaria alternata in vitro cell test. The note with it: 120 h, 20 ppm of active ingredient, liquid culture, 5 days incubation, spectrometric measurement of mycelium growth, read-out: efficacy (inhibition of fungal growth). It is filed as cell-based. A digest of the protocol:
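Spectrometric readout of mycelial growth after 5-day incubation gauged compound effects on spore germination and growth of A. alternata in liquid medium. Compounds were delivered in DMSO at ≤1% final. Absorbance was compared with untreated controls to give inhibition.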

Another data set deals with Pyrenophora teres. Put plainly: In vivo preventive test on Pyrenophora teres (net blotch on barley). The note with it: 240 h, 500 ppm of active ingredient, preventive spray on barley, evaluated 10 days after inoculation, read-out: efficacy. A digest of the protocol:
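Net blotch spores were sprayed onto barley leaves one day after foliar treatment with water-diluted DMSO/acetone/Tween 80 formulations (solvent-only controls). Plants were kept at 20° C: first 48 hours at 100% relative humidity, then 8 days at 70-80%.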

The next data set deals with Alternaria brassicae. Put plainly: In vivo preventive test on Alternaria brassicae (leaf spot on radish or cabbage). The settings on record: 500 ppm of active ingredient, preventive spray on radish or cabbage, evaluated 3 to 4 days after inoculation, read-out: efficacy. A digest of the protocol:
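Protective spray on young radish or cabbage: actives in water diluted from DMSO/acetone/Tween 80, with solvent-only controls. Leaves were challenged after 24 h with a spore suspension, and plants were held at 100% RH, 20 °C for 3 to 4 days.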

The subject of the next data set is Botrytis cinerea. Put plainly: B-11. Botrytis cinerea in vitro cell test. Format: cell-based. The note with it: 144 h, 20 ppm of active ingredient, 6 days incubation, liquid culture, absorbance, read-out: efficacy (inhibition of fungal growth). A digest of the protocol: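 B. cinerea spores were grown in liquid culture with compound (DMSO ≤1% final). Mycelium growth was measured spectrometrically after 6 days, with inhibition taken as absorbance relative to untreated control wells.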

The test system of data set [1] is Colletotrichum lindemuthianum. The data set can be described thus: B-8. Colletotrichum lindemuthianum in vitro cell test. It is filed as cell-based. The note with it: 144 h, 20 ppm of active ingredient, 6 days incubation, liquid culture, absorbance, read-out: efficacy (inhibition of fungal growth). Put shortly:
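Liquid-culture germination/growth test: compounds in ≤1% final DMSO were added to spore-containing medium. Fungal growth was quantified spectrophotometrically after 6 days of incubation and expressed as inhibition versus untreated controls.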

Data set [2] in a line: Measurement of Log P values by HPLC on reversed phase columns (EEC directive 79/831 Annex V.A8). Format: physicochemical. The settings on record: reversed phase HPLC column, method [a]: LC-UV, acidic range, 0.1% formic acid in water and acetonitrile as eluent. A digest of the protocol:
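Log P derived from retention on reversed-phase columns (EEC directive 79/831 Annex V.A8), LC-UV, acetonitrile gradient 10% to 95% against water containing 0.1% formic acid, 0.001 M ammonium acetate, or 0.1% phosphoric acid; several values per method separated by "+".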

A further data set has as its system Sphaerotheca fuliginea. The data set can be described thus: In vivo preventive test on Sphaerotheca fuliginea (powdery mildew on cucurbits). The note with it: Podosphaera fuliginea, 192 h; 500 ppm of active ingredient; preventive spray on gherkin; evaluated 8 days after inoculation; read-out: efficacy. Put shortly: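 This is a preventive spray test on gherkin seedlings, with compound formulated in DMSO/acetone/Tween 80 in water and solvent-only controls. Spore inoculation followed one day after treatment. Incubation lasted 8 days at 20 °C, 70–80% RH.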

The test system of data set [3] is Colletotrichum lindemuthianum. The data set can be described thus: In vivo preventive test on Colletotrichum lindemuthianum (leaf spot on bean). The note with it: 168 h, 500 ppm of active ingredient, preventive spray on bean, evaluated 7 days after inoculation, read-out: efficacy. Put shortly:
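Young bean plants sprayed with compound in DMSO/acetone/Tween 80 diluted in water; solvent-only controls. Inoculated 24 h later with C. lindemuthianum spore suspension, then kept 24 h at 20 °C/100% RH and 6 days at 20 °C/90% RH.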

In general, inhibition refers to the drop in the measured response relative to a control, in per cent. Usually chromatographic logP stands for a lipophilicity value derived from retention on a column. The low end stands for a more hydrophilic compound, the high end for a more lipophilic compound. Turning to `Cc1ccc(C(F)(F)CNC(=O)c2c(Oc3cccc(C4CC4)c3F)nnc3c2CCC3)c(Cl)c1` [I-144], the inhibition at 20 ppm (with Alternaria alternata; in the data set on Botrytis cinerea; in data set [1]) was 90 to 100% throughout. For the same compound, the pest or weed control at 500 ppm in the data set with Pyrenophora teres was in the range of 80 to 89%; with Alternaria brassicae it was 90 to 100%; with Sphaerotheca fuliginea, 90 to 100%; in data set [3], 90 to 100%. The compound further yielded a chromatographic logP in data set [2] of 4.05.

As for `Cc1ccc(C(F)(F)CNC(=O)c2c(Oc3cccc(C(F)(F)F)c3)nnc3cc(C)ccc23)c(Cl)c1` [I-245], the inhibition at 20 ppm (in the data set on Alternaria alternata; in the data set on Botrytis cinerea; in data set [1]) was 90 to 100% each time. Moreover, the pest or weed control at 500 ppm lay within 90 to 100% with Pyrenophora teres, 90 to 100% in the data set on Alternaria brassicae, 90 to 100% in the data set on Sphaerotheca fuliginea and 80 to 89% in data set [3]. Moreover, in data set [2], the chromatographic logP was determined as 4.7.

As to `Cc1cc(Br)ccc1C(F)(F)CNC(=O)c1c(Oc2cccc(C(F)(F)F)c2)nnc2c1COCC2` [I-127], the inhibition at 20 ppm (with Alternaria alternata; in the data set on Botrytis cinerea; in data set [1]) was 90 to 100% each time. Moreover, the pest or weed control at 500 ppm lay in the range of 70 to 79% in the data set on Pyrenophora teres, 90 to 100% in the data set with Alternaria brassicae, 90 to 100% in the data set on Sphaerotheca fuliginea and 90 to 100% in data set [3]. This compound also had a chromatographic logP in data set [2] of 3.94.

Regarding `O=C(NCC(F)(F)c1ccc(Cl)cc1Cl)c1c(Oc2cccc(C(F)(F)F)c2)nnc2c1COCC2` [I-228], the inhibition at 20 ppm (with Alternaria alternata; in the data set on Botrytis cinerea; in data set [1]) was 90 to 100% throughout. Also, the pest or weed control at 500 ppm in the data set on Pyrenophora teres lay in the range of 70 to 79%; in the data set with Alternaria brassicae it was 90 to 100%; in the data set on Sphaerotheca fuliginea it was 90 to 100%; in data set [3], 90 to 100%. The compound also had a chromatographic logP in data set [2] of 3.85.

For the compound `Cc1cccc(Oc2cnc3ccccc3c2C(=O)NCC(F)(F)c2ccc(C)cc2C)c1` [I-222], the inhibition at 20 ppm (with Alternaria alternata; in the data set with Botrytis cinerea; in data set [1]) was 90 to 100% in each case. Also, the pest or weed control at 500 ppm fell in the range of 80 to 89% in the data set with Pyrenophora teres, 90 to 100% with Alternaria brassicae, 90 to 100% in the data set with Sphaerotheca fuliginea and 70 to 79% in data set [3]. In data set [2], this compound registered a chromatographic logP of 4.3.

Regarding `Cc1ccc(C(F)(F)CNC(=O)c2c(Oc3cccc(Cl)c3F)nnc3c2CCC3)c(Cl)c1` [I-143], the inhibition at 20 ppm (in the data set on Alternaria alternata; in the data set with Botrytis cinerea; in data set [1]) was 90 to 100% throughout. Further, the pest or weed control at 500 ppm (in the data set with Pyrenophora teres; in the data set on Alternaria brassicae; with Sphaerotheca fuliginea; in data set [3]) was 90 to 100% each time. Further, in data set [2], the chromatographic logP came to 3.84.

As to `Cc1ccc(C(F)(F)CNC(=O)c2c(Oc3cccc(C4CC4)c3F)nnc3c2CCC3)c(C)c1` [I-134], the inhibition at 20 ppm (in the data set on Alternaria alternata; in the data set on Botrytis cinerea; in data set [1]) was 90 to 100% throughout. In addition, the pest or weed control at 500 ppm was in the range of 80 to 89% with Pyrenophora teres, 90 to 100% in the data set with Alternaria brassicae, 90 to 100% with Sphaerotheca fuliginea and 90 to 100% in data set [3]. The chromatographic logP in data set [2] worked out at 4.17.

For the compound `O=C(NCC(F)c1ccc(Cl)cc1Cl)c1c(Oc2cccc(C(F)(F)F)c2)nnc2c1CCCC2` (stereo not shown) [I-118], the inhibition at 20 ppm (in the data set with Alternaria alternata; in the data set on Botrytis cinerea; in data set [1]) was 90 to 100% in each case. The pest or weed control at 500 ppm (in the data set on Pyrenophora teres; with Alternaria brassicae; in the data set on Sphaerotheca fuliginea; in data set [3]) was 90 to 100% throughout. In data set [2], this compound came in with a chromatographic logP of 4.05.

As for `Cc1cc(Cl)ccc1C(F)(F)CNC(=O)c1c(Oc2cccc(C(F)(F)F)c2)nnc2c1CCCC2` [I-145], the inhibition at 20 ppm (in the data set on Alternaria alternata; in the data set on Botrytis cinerea; in data set [1]) was 90 to 100% in each case. Also, the pest or weed control at 500 ppm (in the data set with Pyrenophora teres; in the data set with Alternaria brassicae; with Sphaerotheca fuliginea; in data set [3]) was 90 to 100% in each case. The chromatographic logP in data set [2] was determined as 4.28.

Regarding `Cc1ccc(C(F)(F)CNC(=O)c2c(Oc3cccc(Br)c3F)nnc3ccccc23)c(C)c1` [I-227], the inhibition at 20 ppm (in the data set on Alternaria alternata; in the data set on Botrytis cinerea; in data set [1]) was 90 to 100% in each case. Further, the pest or weed control at 500 ppm was 70 to 79% in the data set on Pyrenophora teres, 90 to 100% in the data set on Alternaria brassicae, 90 to 100% in the data set on Sphaerotheca fuliginea and 80 to 89% in data set [3]. In addition, in data set [2], the chromatographic logP was determined as 4.4.

On to `Cc1ccc(C(F)(F)CNC(=O)c2c(Oc3cccc(Cl)c3F)nnc3c2CCCC3)c(C)c1` [I-130], for which the inhibition at 20 ppm (in the data set with Alternaria alternata; in the data set on Botrytis cinerea; in data set [1]) was 90 to 100% throughout. Moreover, the pest or weed control at 500 ppm (with Pyrenophora teres; in the data set with Alternaria brassicae; with Sphaerotheca fuliginea; in data set [3]) was 90 to 100% each time. Further, the chromatographic logP in data set [2] worked out at 4.

Regarding `Cc1ccc(C(F)(F)CNC(=O)c2c(Oc3cccc(C(F)(F)F)c3)nnc3c2CCCC3)c(Cl)c1` [I-239], the inhibition at 20 ppm (in the data set on Alternaria alternata; in the data set on Botrytis cinerea; in data set [1]) was 90 to 100% throughout. Also, the pest or weed control at 500 ppm (in the data set with Pyrenophora teres; with Alternaria brassicae; in the data set on Sphaerotheca fuliginea; in data set [3]) was 90 to 100% in each case. The chromatographic logP in data set [2] stood at 4.05.

Take `Cc1cc(Br)ccc1C(F)(F)CNC(=O)c1c(Oc2cccc(C(F)F)c2)nnc2c1CCCC2` [I-150]: the inhibition at 20 ppm (with Alternaria alternata; in the data set with Botrytis cinerea; in data set [1]) was 90 to 100% throughout. In addition, the pest or weed control at 500 ppm (in the data set on Pyrenophora teres; in the data set on Alternaria brassicae; in the data set on Sphaerotheca fuliginea; in data set [3]) was 90 to 100% each time. In addition, the chromatographic logP in data set [2] is 3.84.

Turning to `Cc1cc(Br)ccc1C(F)(F)CNC(=O)c1c(Oc2cccc(Cl)c2)nnc2c1CCCC2` [I-151], the inhibition at 20 ppm (with Alternaria alternata; in the data set with Botrytis cinerea; in data set [1]) was 90 to 100% throughout. The pest or weed control at 500 ppm was 80 to 89% with Pyrenophora teres, 90 to 100% in the data set on Alternaria brassicae, 90 to 100% with Sphaerotheca fuliginea and 90 to 100% in data set [3]. In data set [2], this compound returned a chromatographic logP of 4.17.

For `Cc1ccc(C(F)(F)CNC(=O)c2c(Oc3cccc(Cl)c3)nnc3c2CCCC3)c(C)c1` [I-121], the inhibition at 20 ppm (in the data set with Alternaria alternata; with Botrytis cinerea; in data set [1]) was 90 to 100% throughout. Moreover, the pest or weed control at 500 ppm (in the data set with Pyrenophora teres; in the data set on Alternaria brassicae; in the data set on Sphaerotheca fuliginea; in data set [3]) was 90 to 100% each time. The chromatographic logP in data set [2] stood at 3.89.

For `Cc1ccc(C(F)(F)CNC(=O)c2c(Oc3cccc(C4CC4)c3F)nnc3c2CCCC3)c(C)c1` [I-131], the inhibition at 20 ppm (in the data set with Alternaria alternata; in the data set on Botrytis cinerea; in data set [1]) was 90 to 100% in each case. In addition, the pest or weed control at 500 ppm (with Pyrenophora teres; in the data set on Alternaria brassicae; in the data set with Sphaerotheca fuliginea; in data set [3]) was 90 to 100% each time. This compound also displayed a chromatographic logP in data set [2] of 4.23.

With `Cc1ccc(C(F)(F)CNC(=O)c2c(Oc3cccc(Cl)c3F)nnc3c2CCC3)c(C)c1` [I-133], the inhibition at 20 ppm (in the data set on Alternaria alternata; in the data set on Botrytis cinerea; in data set [1]) was 90 to 100% in each case. Also, the pest or weed control at 500 ppm (with Pyrenophora teres; with Alternaria brassicae; in the data set with Sphaerotheca fuliginea; in data set [3]) was 90 to 100% throughout. In data set [2], this compound displayed a chromatographic logP of 3.89.
